From US5703239A, “Indanylpiperidines as melatonergic agents” (Bristol-Myers Squibb Company, priority 1996, dated 1997)

Target: T1, human ML1B receptor (Homo sapiens, UniProt P49286)
T1 construct: expressed in transfected cells; host or cells: NIH 3T3 cells (stably transfected; obtained from S. M. Reppert)
T1 sequence (P49286 1-362): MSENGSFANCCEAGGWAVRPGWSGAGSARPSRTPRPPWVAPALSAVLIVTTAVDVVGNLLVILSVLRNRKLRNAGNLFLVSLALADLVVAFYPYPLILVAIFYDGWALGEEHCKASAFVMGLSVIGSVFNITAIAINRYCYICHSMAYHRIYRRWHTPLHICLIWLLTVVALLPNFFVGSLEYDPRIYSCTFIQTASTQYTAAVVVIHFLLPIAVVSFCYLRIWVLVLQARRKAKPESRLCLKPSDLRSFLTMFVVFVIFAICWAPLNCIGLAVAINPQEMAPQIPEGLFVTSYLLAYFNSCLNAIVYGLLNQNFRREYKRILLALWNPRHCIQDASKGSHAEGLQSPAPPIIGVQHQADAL
Assay: Binding to human melatonergic receptors (2-[125I]-iodomelatonin, NIH 3T3 cell membranes, human ML1B receptor)
Conditions: IC50 class; 200 pM 2-[125I]-iodomelatonin, 37° C., 1 hour, membranes of NIH 3T3 cells transfected with human ML1B receptor; read-out: Melatonin Binding
Experimental: Measurement of Binding to Human Melatonergic Receptors The melatonergic binding affinities of various compounds of Formula I were determined by the method of Reppert, S. M., Weaver, D. R., and Ebisawa, R. (Neuron, Volume 13, 1177-1185, 1994). The assays were incubated at 37° C. for 1 hour, and the reaction was terminated by filtration. The filters were washed with wash buffer. […] The reagents, membrane and other techniques used in the melatonergic binding assays are more fully described below: […] Reagents: (a) 50 mM Tris buffer containing 12.5 mM MgCl2, and 2 mM EDTA, pH 7.4 at 37° C. (b) Wash buffer: 20 mM Tris base containing 2 mM MgCl2. pH 7.4 at room temperature. (c) Melatonin (10^-5 M final concentration). (d) 2-[^125 I]-Iodomelatonin, 200 pM final concentration Source: NEN 2. Membrane preparation: NIH 3T3 cells stably transfected with the human ML1B receptor were obtained from S. M. Reppert and maintained. Cells were pelleted when confluent. The supernatant was discarded and the pellets frozen. For preparing membrane homogenates, the pellets are thawed on ice and resuspended in TME buffer, Tris base, MgCl2, EDTA (pH 7.4 at 37° C.), supplemented with aprotinin, leupeptin, and […]. The cells were then homogenized and centrifuged. The resulting pellet was resuspended with a Dounce homogenizer in TME and frozen. At assay, a small aliquot was thawed on ice and resuspended in TME buffer.

Structure (SMILES)	IC50
COc1cc2c(cc1F)CCC2C1CCN(C(=O)C(C)C)CC1 (centres unmarked) [4-(5-Fluoro-6-methoxy-indan-1-yl)1-(2-methylpropanoyl)piperidine]	< 10 nM
CCC(=O)N1CCC(C2CCc3cc(F)c(OC)cc32)CC1 (centres unmarked) [4-(5-Fluoro-6-methoxy-indan-1-yl)-1-propanoylpiperidine]	< 10 nM
CCc1ccc2c(c1)C(C1CCN(C(=O)C(C)C)CC1)CC2 (centres unmarked) [4-(6-Ethyl-indan-1-yl)-1-(2-methylpropanoyl)piperidine]	< 10 nM
CC(C)C(=O)N1CCC(C2CCc3ccc(F)cc32)CC1 (centres unmarked) [4-(6-Fluoro-indan-1-yl)-1-(2-methylpropanoyl)piperidine]	< 10 nM
COCC(=O)N1CCC(C2CCc3ccc(OC)cc32)CC1 (centres unmarked) [4-(6-Methoxy-indan-1-yl)-1-(2-methoxy-acetyl)piperidine]	< 10 nM
CCC(C)C(=O)N1CCC(C2CCc3ccc(OC)cc32)CC1 (centres unmarked) [4-(6-Methoxy-indan-1-yl)-1-(2-methylbutanoyl)piperidine]	< 10 nM
COc1ccc2c(c1)C(C1CCN(C(=O)CSC)CC1)CC2 (centres unmarked) [4-(6-Methoxy-indan-1-yl)-1-(2-methylthioacetyl)piperidine]	< 10 nM
COc1ccc2c(c1)C(C1CCN(C(=O)c3csnn3)CC1)CC2 (centres unmarked) [4-(6-Methoxy-indan-1-yl)-1-[(1,2,3-thiadiazol-4-yl)carbonyl]piperidine]	< 10 nM
COc1ccc2c(c1)C(C1CCN(C(=O)c3cccn3C)CC1)CC2 (centres unmarked) [4-(6-Methoxy-indan-1-yl)-1-[(1-methyl-pyrrol-2-yl)carbonyl]piperidine]	< 10 nM
COc1ccc2c(c1)C(C1CCN(C(=O)c3ccc[nH]3)CC1)CC2 (centres unmarked) [4-(6-Methoxy-indan-1-yl)-1-[(1H-pyrrol-2-yl)carbonyl]piperidine]	< 10 nM
COc1ccc2c(c1)C(C1CCN(C(=O)c3cccs3)CC1)CC2 (centres unmarked) [4-(6-Methoxy-indan-1-yl)-1-[(2-thienyl)carbonyl]piperidine]	< 10 nM
COc1ccc2c(c1)C(C1CCN(C(=O)c3occc3C)CC1)CC2 (centres unmarked) [4-(6-Methoxy-indan-1-yl)-1-[(3-methyl-furan-2-yl)carbonyl]piperidine]	< 10 nM
COc1ccc2c(c1)C(C1CCN(C(=O)c3sccc3C)CC1)CC2 (centres unmarked) [4-(6-Methoxy-indan-1-yl)-1-[(3-methyl-thien-2-yl)carbonyl]piperidine]	< 10 nM
COc1ccc2c(c1)C(C1CCN(C(=O)c3ccsc3)CC1)CC2 (centres unmarked) [4-(6-Methoxy-indan-1-yl)-1-[(3-thienyl)carbonyl]piperidine]	< 10 nM
COc1ccc2c(c1)C(C1CCN(C(=O)C(C)C)CC1)CC2 (centres unmarked) [4-(6-methoxy-indan-1-yl)-1-(2-methylpropanoyl)piperidine]	< 10 nM
COc1ccc2c(c1)C(C1CCN(C(=O)C(F)(F)F)CC1)CC2 (centres unmarked) [4-(6-methoxy-indan-1-yl)-1-(trifluoroacetyl)piperidine]	< 10 nM
COc1ccc2c(c1)C(C1CCN(C(=O)c3ccc(C)s3)CC1)CC2 (centres unmarked) [4-(6-methoxy-indan-1-yl)-1-[(5-methyl-thien-2-yl)carbonyl]piperidine]	10 to 100 nM

Structure (SMILES)	IC50
CC(=O)NCCc1c(Cc2ccccc2)[nH]c2ccccc12 [Luzindole]	100 to 250 nM
O=C(C1CC1)N1CCC(C2CCc3ccc(O)cc32)CC1 (centres unmarked) [N-(Cyclopropylcarbonyl)-4-(6-hydroxy-indan-1-yl)piperidine]	10 to 100 nM
CCNC(=O)N1CCC(C2CCc3cc(F)c(OC)cc32)CC1 (centres unmarked) [N-Ethyl-4-(5-fluoro-6-methoxy-indan-1-yl)piperidine-1-carboxamide]	10 to 100 nM
CCNC(=O)N1CCC(C2CCc3ccc(CC)cc32)CC1 (centres unmarked) [N-Ethyl-4-(6-ethyl-indan-1-yl)piperidine-1-carboxamide]	< 10 nM
CCNC(=O)N1CCC(C2CCc3ccc(F)cc32)CC1 (centres unmarked) [N-Ethyl-4-(6-fluoro-indan-1-yl)piperidine-1-carboxamide]	< 10 nM
CCNC(=O)N1CCC(C2CCc3ccc(OC)cc32)CC1 (centres unmarked) [N-Ethyl-4-(6-methoxy-indan-1-yl)piperidine-1-carboxamide]	< 10 nM
CCNC(=O)N1CCC(C2CCCc3ccc(OC)cc32)CC1 (centres unmarked) [N-Ethyl-4-(7-methoxy-tetralin-1-yl)piperidine-1-carboxamide]	10 to 100 nM
CCNC(=O)N1CCC(C2CCc3ccccc32)CC1 (centres unmarked) [N-Ethyl-4-(indan-1-yl)-piperidine-1-carboxamide]	10 to 100 nM
CCCCCCCOc1ccc2c(c1)C(C1CCN(C(=O)NCC)CC1)CC2 (centres unmarked) [N-Ethyl-4-[6-(n-heptyloxy)-indan-1-yl]piperidine-1-carboxamide]	< 10 nM
CCNC(=O)N1CCC(C2CCc3ccc(OC(F)(F)F)cc32)CC1 (centres unmarked) [N-Ethyl-4-[6-(trifluoromethoxy)-indan-1-yl]piperidine-1-carboxamide]	10 to 100 nM
CCNC(=O)N1CCC(C2CCc3ccc(OCCCc4cccc(OC)c4)cc32)CC1 (centres unmarked) [N-Ethyl-4-[6-[3-(3-methoxyphenyl)propyloxy]-indan-1-yl]piperidine-1-carboxamide]	10 to 100 nM
CNC(=O)N1CCC(C2CCc3cc(F)c(OC)cc32)CC1 (centres unmarked) [N-Methyl-4-(5-fluoro-6-methoxy-indan-1-yl)piperidine-1-carboxamide]	< 10 nM
CNC(=O)N1CCC(C2CCc3ccc(F)cc32)CC1 (centres unmarked) [N-Methyl-4-(6-fluoro-indan-1-yl)piperidine-1-carboxamide]	10 to 100 nM
CNC(=S)N1CCC(C2CCc3ccc(OC)cc32)CC1 (centres unmarked) [N-Methyl-4-(6-methoxy-indan-1-yl)-piperidine-1-thiocarboxamide]	< 10 nM
CNC(=O)N1CCC(C2CCc3ccc(OC)cc32)CC1 (centres unmarked) [N-Methyl-4-(6-methoxy-indan-1-yl)piperidine-1-carboxamide]	< 10 nM
CNC(=O)N1CCC(C2CCc3ccccc32)CC1 (centres unmarked) [N-Methyl-4-(indan-1-yl)-piperidine-1-carboxamide]	< 10 nM

Test system: not given
Assay: not given
Conditions: literature: Dubocovich et al, European Journal of Pharmacology, 182, (1990), pages 313-325; cited from earlier work

Structure (SMILES)	antidepressant-like effects
CC(=O)NCCc1c(Cc2ccccc2)[nH]c2ccccc12 [Luzindole]	exhibits antidepressant-like effects

Test system: human melatonin receptors
Assay: not given
Conditions: result in words, luzindole, background section; cited from earlier work

Structure (SMILES)	binds to human melatonin receptors
CC(=O)NCCc1c(Cc2ccccc2)[nH]c2ccccc12 [Luzindole]	binds to human melatonin receptors
